Assay [1] concerns the target T1, MERTK (Homo sapiens, UniProt Q12866).
T1 sequence (Q12866 21-999): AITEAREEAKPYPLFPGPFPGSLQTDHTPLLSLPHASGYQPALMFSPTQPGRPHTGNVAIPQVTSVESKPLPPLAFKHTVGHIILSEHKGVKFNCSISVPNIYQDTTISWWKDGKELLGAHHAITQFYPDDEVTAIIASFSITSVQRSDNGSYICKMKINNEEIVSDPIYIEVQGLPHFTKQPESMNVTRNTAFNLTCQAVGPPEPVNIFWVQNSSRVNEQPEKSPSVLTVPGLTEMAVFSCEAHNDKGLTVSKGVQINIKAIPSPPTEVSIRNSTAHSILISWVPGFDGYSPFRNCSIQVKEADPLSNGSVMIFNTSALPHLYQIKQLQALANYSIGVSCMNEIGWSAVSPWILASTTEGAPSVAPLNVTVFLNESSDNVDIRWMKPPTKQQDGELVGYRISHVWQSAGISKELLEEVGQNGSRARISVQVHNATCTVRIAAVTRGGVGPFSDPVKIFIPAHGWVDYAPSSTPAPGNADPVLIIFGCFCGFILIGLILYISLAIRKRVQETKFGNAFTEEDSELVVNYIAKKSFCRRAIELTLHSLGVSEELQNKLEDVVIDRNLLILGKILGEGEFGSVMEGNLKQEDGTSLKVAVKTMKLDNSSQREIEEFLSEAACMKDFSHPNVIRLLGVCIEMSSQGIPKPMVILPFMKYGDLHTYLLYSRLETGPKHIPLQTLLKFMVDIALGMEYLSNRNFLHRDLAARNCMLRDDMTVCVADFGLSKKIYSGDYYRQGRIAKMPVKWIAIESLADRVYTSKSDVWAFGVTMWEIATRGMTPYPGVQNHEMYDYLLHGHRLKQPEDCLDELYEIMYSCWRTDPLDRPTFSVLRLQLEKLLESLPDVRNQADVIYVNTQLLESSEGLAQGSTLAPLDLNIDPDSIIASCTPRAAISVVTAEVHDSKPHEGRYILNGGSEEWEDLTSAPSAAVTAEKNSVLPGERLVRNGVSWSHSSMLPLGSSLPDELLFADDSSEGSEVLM
Briefly: TR-FRET kinase activity assay, MERTK. Format: biochemical. The settings on record: for IC50: TR-FRET activity assay, ATP at Km, 60 minutes, read-out: Mer IC50; for FLT3/Mer ratio (FLT3 IC50/Mer IC50): ratio of Mer to FLT3: FLT3 IC50/Mer IC50. The protocol:
(§1) IC50 values for compound inhibition of AXL, FLT3, MERTK and TYRO3 activity were determined by using a TR-FRET activity assay. A polypeptide substrate with a fluorescent label is phosphorylated on a tyrosine by each enzyme, where the now phosphorylated product is bound by a Europium-labeled antibody specific to that phosphorylation site. The proximity between the antibody and the substrate gives a signal known as TR-FRET. As the enzyme is inhibited by compound, less phosphorylated peptide product is made causing a decrease in overall signal.
(§2) Activity assays were performed in a 384-well, small volume, black microplates in an active enzyme volume of 10 μL and final developed volume of 20 μL. Final assay conditions are 50 mM HEPES pH 7.5, 10 mM MgCl2, 1 mM EGTA, 0.01% Brij 35 and 1 mM DTT all at RT. Enzyme, substrate labeled peptide and compound are mixed, and then the reaction is initiated with the addition of ATP at Km concentration for each enzyme. The reaction is allowed to run 60 minutes and then quenched with a 12.5 mM EDTA (ethylenediamine tetraacetic acid) solution. The plate is then developed with the addition of Europium labeled antibody for a final volume of 20 μL and is then incubated for 30 minutes in darkness. Plates are read in a Pherastar plate reader. Data is analyzed in GraphPad PRISM.
(§3) The results of these assays are shown in Table 1, below, wherein “No.” designates compound number (FIG. 1); “A” represents a value of ≤100 nM; “B” a value of >100 nM and ≤1 μM; “C” a value of >1 μM and ≤10 μM; “D” a value of >10 μM; “ND” is not determined. The ratio of Mer to FLT3 is calculated as follows: FLT3 IC50/Mer IC50. “+” represents a ratio of >2.0 and <10; “++” represents a ratio of between 10 and 100; and “+++” represents a ratio of >100.

Assay [2] addresses T2, FLT3 (Homo sapiens, UniProt P36888).
T2 sequence (P36888 27-993): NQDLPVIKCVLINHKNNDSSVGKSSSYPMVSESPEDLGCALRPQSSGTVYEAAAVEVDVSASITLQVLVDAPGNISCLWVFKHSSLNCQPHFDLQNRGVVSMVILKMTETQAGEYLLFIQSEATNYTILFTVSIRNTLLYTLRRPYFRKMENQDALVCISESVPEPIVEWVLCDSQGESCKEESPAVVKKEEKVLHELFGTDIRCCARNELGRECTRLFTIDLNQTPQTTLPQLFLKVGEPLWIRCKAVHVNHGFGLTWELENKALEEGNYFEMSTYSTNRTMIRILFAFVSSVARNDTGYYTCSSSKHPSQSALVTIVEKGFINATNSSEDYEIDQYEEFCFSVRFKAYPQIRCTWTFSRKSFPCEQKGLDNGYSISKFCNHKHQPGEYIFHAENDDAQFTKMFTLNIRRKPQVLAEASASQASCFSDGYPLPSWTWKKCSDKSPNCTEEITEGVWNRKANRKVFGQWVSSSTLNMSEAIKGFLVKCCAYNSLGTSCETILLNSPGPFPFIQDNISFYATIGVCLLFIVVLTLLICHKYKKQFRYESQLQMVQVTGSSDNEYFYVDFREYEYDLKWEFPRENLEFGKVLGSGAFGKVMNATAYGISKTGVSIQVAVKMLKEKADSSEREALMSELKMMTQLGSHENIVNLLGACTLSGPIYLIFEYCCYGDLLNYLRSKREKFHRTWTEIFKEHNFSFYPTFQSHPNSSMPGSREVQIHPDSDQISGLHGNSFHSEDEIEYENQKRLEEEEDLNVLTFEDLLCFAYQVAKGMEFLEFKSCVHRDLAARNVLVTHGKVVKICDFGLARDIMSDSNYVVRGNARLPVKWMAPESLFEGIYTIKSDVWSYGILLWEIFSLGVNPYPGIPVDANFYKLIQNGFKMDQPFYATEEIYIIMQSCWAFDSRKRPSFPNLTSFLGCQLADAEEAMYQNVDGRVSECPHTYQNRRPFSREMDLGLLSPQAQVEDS
Briefly: TR-FRET kinase activity assay, FLT3. In kind it is biochemical. The settings on record: ATP at Km, 60 minutes. How it is done: as §1, §2, §3

Turning to `COC[C@H](C)Nc1ncc2c(-c3cccc(CN4CCN(C)CC4)c3)cc([C@H]3CC[C@H](O)CC3)n2n1` [Compound 218], the IC50 in assay [1] was no more than 100 nM; in assay [2], 100 to 1000 nM. In assay [1], the “FLT3/Mer ratio (FLT3 IC50/Mer IC50)” value was “+++ (“+++” represents a ratio of >100)”.
Take `COCCn1cc(-c2cc([C@H]3CC[C@H](O)CC3)n3nc(N[C@@H](C)COC)ncc23)cn1` [Compound 209]: in assay [1], the IC50 is no more than 100 nM and the “FLT3/Mer ratio (FLT3 IC50/Mer IC50)” value is listed as “+++ (“+++” represents a ratio of >100)”. This compound also came in with an IC50 in assay [2] of 100 to 1000 nM.
Taken in the same sequence, the figures for `COC[C@H](C)Nc1ncc2c(-c3cncc(C)c3)cc([C@H]3CC[C@H](O)CC3)n2n1` [Compound 231] were no more than 100 nM, “+++ (“+++” represents a ratio of >100)” and 1000 to 10000 nM.
For the compound `COC[C@H](C)Nc1ncc2c(-c3cncc(C(=O)N4CCOCC4)c3)cc([C@H]3CC[C@H](O)CC3)n2n1` [Compound 233], in assay [1], the IC50 is no more than 100 nM and the “FLT3/Mer ratio (FLT3 IC50/Mer IC50)” value is “+++ (“+++” represents a ratio of >100)”. Also, the IC50 in assay [2] lay within 1000 to 10000 nM.
Taken in the same sequence, the figures for `COC[C@H](C)Nc1ncc2c(-c3cccc(CN4CCC(F)(F)C4)c3)cc([C@H]3CC[C@H](O)CC3)n2n1` [Compound 223] were no more than 100 nM, “+++ (“+++” represents a ratio of >100)” and 1000 to 10000 nM.
Taken in the same sequence, the figures for `COC[C@H](C)Nc1ncc2c(-c3cccc(CN4CCOCC4)c3)cc([C@H]3CC[C@H](O)CC3)n2n1` [Compound 217] were no more than 100 nM, “+++ (“+++” represents a ratio of >100)” and 100 to 1000 nM.
In the case of `CCCCC[C@H](C)Nc1ncc2c([C@H]3CC[C@@H](C(=O)N4CCOCC4)CC3)cc([C@H]3CC[C@H](O)CC3)n2n1` [Compound 109, ((cis)-4-(2-((S)-heptan-2-ylamino)-7-((trans)-4-hydroxycyclohexyl)pyrrolo[2,1-f][1,2,4]triazin-5-yl)cyclohexyl)(morpholino)methanone], in assay [1], the IC50 is no more than 100 nM; the “FLT3/Mer ratio (FLT3 IC50/Mer IC50)” value was “++ (“++” represents a ratio of between 10 and 100)”. Also, the IC50 in assay [2] lay in the range of 100 to 1000 nM.
As to `COC[C@H](C)Nc1ncc2c(-c3cccc(CN4CC[C@@H](F)C4)c3)cc([C@H]3CC[C@H](O)CC3)n2n1` [Compound 224], the IC50 in assay [1] is no more than 100 nM; in assay [2], 100 to 1000 nM. In addition, the “FLT3/Mer ratio (FLT3 IC50/Mer IC50)” value in assay [1] is “+++ (“+++” represents a ratio of >100)”.
Take `COC[C@H](C)Nc1ncc2c(-c3cn(C)nn3)cc([C@H]3CC[C@H](O)CC3)n2n1` [Compound 250, (trans)-4-(2-(((S)-1-methoxypropan-2-yl)amino)-5-(1-methyl-1H-1,2,3-triazol-4-yl)pyrrolo[2,1-f][1,2,4]triazin-7-yl)cyclohexanol]: in assay [1], the IC50 is no more than 100 nM and the “FLT3/Mer ratio (FLT3 IC50/Mer IC50)” value was “+++ (“+++” represents a ratio of >100)”. This compound displayed an IC50 in assay [2] of 1000 to 10000 nM.
Taken in the same sequence, the figures for `COC[C@H](C)Nc1ncc2c(-c3ccc(C(=O)N4CCS(=O)(=O)CC4)cc3)cc([C@H]3CC[C@H](O)CC3)n2n1` [Compound 197] were no more than 100 nM, “+++ (“+++” represents a ratio of >100)” and 100 to 1000 nM.
Taken in the same sequence, the figures for `COC[C@H](C)Nc1ncc2c(-c3cnc(C)o3)cc([C@H]3CC[C@H](O)CC3)n2n1` [Compound 261] were no more than 100 nM, “+++ (“+++” represents a ratio of >100)” and 1000 to 10000 nM.
Taken in the same sequence, the figures for `COC[C@H](C)Nc1ncc2c(-c3cnn(CC(=O)N(C)C)c3)cc([C@H]3CC[C@H](O)CC3)n2n1` [Compound 238] were no more than 100 nM, “+++ (“+++” represents a ratio of >100)” and 100 to 1000 nM.
Consider `COCC(C)Nc1ncc2c(-c3ccc(-c4nnc(C)o4)cc3)cc(C3CCC(O)CC3)n2n1` (stereo not drawn) [Compound 198], for which, in assay [1], the IC50 was no more than 100 nM and the “FLT3/Mer ratio (FLT3 IC50/Mer IC50)” value was “+++ (“+++” represents a ratio of >100)”. In addition, in assay [2], the IC50 lay in the range of 100 to 1000 nM.
On to `CNC(=O)c1ccc(-c2cc([C@H]3CC[C@H](O)CC3)n3nc(N[C@@H](C)CC(F)(F)F)ncc23)cn1` [Compound 263], for which, in assay [1], the IC50 was no more than 100 nM; the “FLT3/Mer ratio (FLT3 IC50/Mer IC50)” value was “++ (“++” represents a ratio of between 10 and 100)”. The compound further registered a 50% inhibitory concentration (IC50) in assay [2] of no more than 100 nM.
With `COC[C@H](C)Nc1ncc2c(-c3cncc(C(N)=O)c3)cc([C@H]3CC[C@H](O)CC3)n2n1` [Compound 247], in assay [1], the IC50 was no more than 100 nM and the “FLT3/Mer ratio (FLT3 IC50/Mer IC50)” value is reported as “+++ (“+++” represents a ratio of >100)”. The same compound gave a half-inhibitory concentration (IC50) in assay [2] of 1000 to 10000 nM.
Taken in the same sequence, the figures for `COC[C@H](C)Nc1ncc2c(-c3ccnc(N4CCN(C)CC4)c3)cc([C@H]3CC[C@H](O)CC3)n2n1` [Compound 256] were no more than 100 nM, “+++ (“+++” represents a ratio of >100)” and 100 to 1000 nM.
As to `COC[C@H](C)Nc1ncc2c(-c3ccc4c(c3)NC(=O)C4)cc([C@H]3CC[C@H](O)CC3)n2n1` [Compound 249], in assay [1], the IC50 is no more than 100 nM and the “FLT3/Mer ratio (FLT3 IC50/Mer IC50)” value is given as “+++ (“+++” represents a ratio of >100)”. Moreover, the IC50 in assay [2] lay in the range of 100 to 1000 nM.
Taken in the same sequence, the figures for `COC[C@H](C)Nc1ncc2c(-c3cnn(CC(C)(C)O)c3)cc([C@H]3CC[C@H](O)CC3)n2n1` [Compound 264] were no more than 100 nM, “+++ (“+++” represents a ratio of >100)” and 1000 to 10000 nM.
Turning to `CCCCC[C@H](C)Nc1ncc2c(-c3ccc(CN4CCN(C)CC4)cc3)cc([C@H]3CC[C@@H](O)CC3)n2n1` [Compound 105], in assay [1], the IC50 is no more than 100 nM; the “FLT3/Mer ratio (FLT3 IC50/Mer IC50)” value was “+ (“+” represents a ratio of >2.0 and <10)”. For the same compound, the IC50 in assay [2] is 100 to 1000 nM.

For the origin of these results see US11040981B2, “Pyrrolotriazine compounds and methods of inhibiting TAM kinases” (Syros Pharmaceuticals, Inc., priority 2017, dated 2021).
